Test results as given in US20100298348A1, “Method of Decreasing Ubiquitylated Protein Levels” (priority 2009, published 2010).

Columns and labels:
[1] = test system: APP; test: Western blot of APP and C-terminal fragments in 3xTg-AD mouse brain; assay type: in vivo; details: 5 mg/kg/day
Protocol: To attempt to determine at what part in the Aβ processing/release pathway ST101 may be active, a series of Western blot analyses of brain extracts from the same mice were conducted. These Westerns blots examined intact APP as well as products of its post-translational processing and subsequent degradation.
FIG. 4 is a Western blot that depicts APP C-terminal fragments detected by antibody CT20 in the brains of ST101-treated (S) 3xTg-AD mice, relative to untreated (C) 3xTg mice-AD.
FIG. 5 is a Western blot that depicts APP and degradation fragments detected by antibody CT20 in the brains of ST101-treated (S) 3xTg-AD mice, relative to untreated (C) 3xTg-AD mice. “CT20” stands for full length APP species, and “Actin” stands for anti-beta-actin antibody as a protein loading control.
FIGS. 10A and 10B are Western blots that depict APP carboxy-terminal fragments detected by antibody CT20 in the brains of ST101-treated (T in FIG. 10A, S in FIG. 10B) 3xTg-AD mice, relative to untreated (C) 3xTg-AD mice. FIG. 10B is from a separate experiment that used the same brain extract used in the experiment for FIG. 10A. Animals were approximately 14.5 months old at sacrifice after 2.5 months of treatment with ST101 at 5 mg/kg/day in drinking water. * denotes a control animal with low levels of CTFs.
FIGS. 10C and 10D are Western blots that depict APP carboxy-terminal fragments detected by an APP C-terminal antibody (Eptitomics #: 15654-1) in the brains of ST101-treated (S) 3xTg-AD mice, relative to untreated (C) 3xTg-AD mice. FIG. 10D is a lighter exposure of the Western blot in FIG. 10C. Animals were approximately 14.5 months old at sacrifice after 2.5 months of treatment with ST101 at 5 mg/kg/day in drinking water.
Brain extracts from 12-month-old 3xTg-AD mice that had been treated with ST101 (S) at 5/mg/kg/day in drinking water over 2 months were analyzed in Western blots using a C-terminal APP antibody (CT-20 Calbiochem).

[2] = test system: SAMP8 mouse; details: cited from earlier work
[3] = test system: α-tubulin; test: Western blot of α-tubulin and acetylated α-tubulin in 3xTg-AD mouse brain; assay type: in vivo; details: 3xTg-AD mice 12 months old, 5 mg/kg/day, 2 months
Excerpt: The overexposed band near the bottom of the figure represents α-tubulin. Above this band a ladder of immuno-reactive bands was detected by the antibody.

[4] = test system: proteasome; test: Western blot of proteasome subunits in brain extracts; assay type: in vivo, mouse; details: 12-month-old 3xTg-AD mice, 5 mg/kg/day, 2 months
Protocol: Brain extracts from 12-month-old 3xTg-AD mice (described in Example 15) that had been treated with ST101 at 5/mg/kg/day in drinking water over 2 months were analyzed in Western blots using an anti-proteasome alpha-subunit antibody.

[5] = test system: APP; test: Western blot of APP fragments in cynomolgus monkey hippocampus, 9-month study; assay type: in vivo; details: male cynomolgus monkeys, 9 months oral
Protocol: (§1) Male cynomolgus monkeys were treated for 9 months with 0, 10, 30 or 100 mg/kg/day ST101 with once daily oral drug administration. Hippocampal brain samples were analyzed in Western blots and ELISAs for APP fragments and Aβ. […] Reductions in a ˜55-kDa fragment were also seen with treatment in these groups. Black outlines depict image level enhancement in Adobe Photoshop CS4, to better visualize weak signals. […] However, long exposures reveal the presence of the 17-kDa APP fragment only in treated monkeys (antibody CT20, Calbiochem). This fragment was not detected in either the 30 or 10 mg/kg/day ST101 groups. Error bars indicate SEM (standard error of the mean) and * indicates statistical significance versus control (p<0.05). (S: ST101-treated animals, versus C: control animals).

[6] = test system: beta-tubulin; test: Western blot of beta-tubulin in cynomolgus monkey hippocampus; assay type: in vivo; details: cynomolgus monkeys of Example 19, hippocampal brain samples
Excerpt: (§2) The effects on tubulin were confirmed in the group of cynomolgus monkeys described in example 19.

[7] = test system: acetylated alpha-tubulin; test: Western blot of acetylated alpha-tubulin in cynomolgus monkey hippocampus; assay type: in vivo; details: cynomolgus monkeys of Example 19, hippocampal brain samples
Excerpt: as §2

[8] = test system: Aβ1-40; test: Aβ in cynomolgus monkey brain after six-month chronic toxicity study; assay type: in vivo; details: juvenile cynomolgus monkeys, 10 mg/kg/day by naso-gastric tube, 6 months
Protocol: Brain samples from cynomolgus monkeys were obtained at the conclusion of a six-month chronic toxicity study. The cynomolgus monkeys used in this study were juveniles of less than 4 years of age. ST101 was administered daily for 6 months by naso-gastric tube at 10 mg/kg/day (n=8 per group). Data was generated from 8 treated and 8 control animals. Levels of Aβ1-40 are shown in FIG. 9, which is a bar graph that depicts the effect of ST 101 on Aβ in brain tissue from cynomolgus monkeys. FIG. 9 depicts the amount of levels of Aβ1-40 in monkeys treated with ST 101, relative to control monkeys.

[9] = Chronic and reproductive toxicity studies; assay type: in vivo
[10] = test system: long-term potentiation (LTP); details: cited from earlier work
[11] = test system: Aβ42; test: Sandwich ELISA of Aβ42 in cynomolgus monkey hippocampal lysates, 9-month study; assay type: in vivo; details: male cynomolgus monkeys, 9 months oral
Protocol: as §1

[12] = test system: LC3, Beclin 1, LAMP2A, cathepsin D; test: Western blots of autophagy and lysosomal degradation mediators in 3xTg-AD mouse brain; assay type: in vivo; details: 3xTg-AD mice 12 months old, 5 mg/kg/day, 2 months
Protocol: The concentrations of several proteins involved in these pathways, specifically LC3, Beclin 1 (macroautophagy), LAMP2A (chaperone mediated autophagy), and cathepsin D (lysosomal protease) were measured in Western blots from 3xTg-AD mouse brains (FIG. 18, extracts from the same animals used in Examples 15-17.

[13] = 3xTg-AD mice ~12 months old, 2 months, antibody CT20

Structure (SMILES): O=C1N=C2C=CC=CN2C12Cc1ccccc1C2 [ST101, spiro(imidazo[1,2-a]pyridin-2(3H)-one-3,2′-indan)]
- AICD fragment (APP intracellular domain) ([1]; 3xTg-AD mice 12 months old, 2 months, antibody CT-20): visible in brain extracts from ST101 treated mice (S) but not in control mice (C)
- C83 C-terminal APP fragment [1, 13]: substantial decrease
- C99 C-terminal APP fragment [1, 13]: substantial decrease
- full-length APP species, band shift [1, 13]: slightly lowered molecular weight
- major APP degradation intermediate (~50 kDa) [1, 13]: disappearance or significant reduction
- novel C-terminal APP fragment of about 17 kDa [1, 13]: appearance
- 17 kDa APP fragment ([1]; 3xTg-AD mice ~14.5 months old, 2.5 months): lack of detection
- C99 fragment ([1]; 3xTg-AD mice ~14.5 months old, 2.5 months, Epitomics C-terminal APP antibody): reduction
- APP CTFs ([1]; 3xTg-AD mice ~14.5 months old, 2.5 months, antibody CT20): significant effect of reduction
- C83 fragment ([1]; 3xTg-AD mice ~14.5 months old, 2.5 months, compared with 12-month old mice): not reduced to the same degree
- accumulation of Aβ-like deposits in brain tissue [2]: decreased
- learning and memory functions [2]: improvement
- tubulin degradation products ([3]; acetylated α-tubulin antibody): reduced
- high molecular weight ladder of α-tubulin immuno-reactive bands (presumably ubiquitylated tubulin) ([3]; α-tubulin antibody): either absent or significantly reduced
- concentration of proteasome alpha subunits [4]: No difference is apparent
- high molecular weight bands reactive with proteasome alpha-subunit antibody [4]: clear decrease
- proteasome subunit beta 2i [4]: did not reveal changes
- proteasome subunit beta 5i [4]: did not reveal changes
- C83 APP fragment ([5]; 10 mg/kg/day): no differences
- C99 APP fragment ([5]; 10 mg/kg/day): no differences
- 17-kDa APP fragment ([5]; 10 mg/kg/day, antibody CT20): not detected
- C83 APP fragment ([5]; 30 mg/kg/day): reductions
- C99 APP fragment ([5]; 30 mg/kg/day): reductions
- ~55-kDa APP fragment ([5]; 30 mg/kg/day): Reductions
- 17-kDa APP fragment ([5]; 30 mg/kg/day, antibody CT20): not detected
- C83 APP fragment ([5]; 100 mg/kg/day): reductions
- C99 APP fragment ([5]; 100 mg/kg/day): reductions
- ~55-kDa APP fragment ([5]; 100 mg/kg/day): Reductions
- 17-kDa APP fragment ([5]; 100 mg/kg/day, antibody CT20, long exposures): presence
- beta-tubulin degradation products [6]: increase
- acetylated alpha-tubulin fragments [7]: reduction
- Aβ1-40 levels in brain [8]: reduction of Aβ1-40 in animals treated with ST101 that did not reach statistical significance
- toxicity in chronic toxicity studies ([9]; high doses): very little toxicity
- toxicity in reproductive toxicity studies ([9]; monkey, in vivo): very little toxicity
- safety in rodent and monkey toxicity studies ([9]; up to 6 months, doses up to approximately 100-fold higher than in 3xTg-AD mice): proven safe
- long-term potentiation (LTP) [10]: efficacy in increasing long-term potentiation (LTP)
- Aβ42 in hippocampal lysates ([11]; 10 mg/kg/day): significant increases
- Aβ42 in hippocampal lysates ([11]; 30 mg/kg/day): significant decreases
- Aβ42 in hippocampal lysates ([11]; 100 mg/kg/day): significant decreases
- Beclin 1 concentration [12]: did not reveal any obvious differences
- LAMP2A concentration [12]: did not reveal any obvious differences
- LC3 concentration [12]: did not reveal any obvious differences
- cathepsin D concentration [12]: did not reveal any obvious differences
